In brackets after ≈: the same amount, converted by molar mass. Where two headings read alike, the source gives them in different places.

Experiment [1] relates to Propionibacterium acnes standard strain (ATCC 11827). In words: Minimum growth inhibitory concentration (MIC), GAM agar medium pH 7.3±0.1 (Test Example 1). The experiment is classed as cell-based. The method, then:
The growth inhibitory effects of tetrahydroabietic acid salts against Acne bacterium, which is a Gram-positive anaerobic bacterium were evaluated as follows.
Using a GAM agar medium produced by Nissui K. K. as the medium, after an adjustment of the pH of the medium to 7.3±0.1, a minimum growth inhibitory concentration (MIC) of sodium tetrahydroabietate and sodium salt of hydrogenated rosin, needed for a Propionibacterium acnes standard strain (ATCC 11827) was measured and evaluated.
As a Control, MIC's of substances generally known to have an antibacterial action (isopropylmethylphenol, berberine chloride, thioxolone, abietic acid) were also measured.

The subject of experiment [2] is Propionibacterium avidum, ATCC 25577. Put plainly: Growth inhibitory band around filter paper disc (Test Example 2). The experiment is classed as cell-based. The settings on record: 0.05 ml of 10% acetone solution on 8 mm disc, 37° C., 3 days, anaerobic. The method, then:
Using an ABCM medium (Eikensha K. K.) as the antibacterial active medium, the medium was heated in an autoclave at a temperature of 115° C. for 15 minutes. A filter paper disc (8 mm.phi.) impregnated with 0.05 ml of 10% acetone solution of each sample was adhered to an agar plate to which Propionibacterium avidum, ATCC 25577 was previously inoculated and dispersed thereon, and anaerobically cultured at 37° C. for 3 days. The diameter of the transparent band (Propionibacterium avidum growth inhibitory band) formed around the filter paper upon completion of the culturing was measured, and the antibacterial power determined therefrom.

Where [3] appears, read: Cutibacterium acnes, ATCC11827, GAM agar medium, pH 7.3±0.1, read-out: MIC.

Consider `CC(C)C1=CC2=CC[C@@H]3[C@](C)(CCC[C@@]3(C)C(=O)O)[C@H]2CC1` [Abietic acid], for which, in experiment [1] (setting [3]), the MIC was 20 µg/mL (≈ 66.1 µM). For the same compound, in experiment [2] (Cutibacterium avidum, ATCC25577, 72 h, read-out: Inhibitory band diameter), the zone of inhibition at 10 % worked out at 15 mm. `COc1ccc2cc3[n+](cc2c1OC)CCc1cc2c(cc1-3)OCO2` [Berberline chloride, berberine chloride] had an MIC in experiment [1] (Cutibacterium acnes, ATCC11827, pH 7.3) of 100 µg/mL. For `Cc1cc(O)ccc1C(C)C` [Isopropylmethylphenol], the MIC in experiment [1] (GAM agar medium, pH 7.3±0.1) worked out at 100 ppm. In experiment [1] (GAM agar medium, pH 7.3±0.1), `CC(C)C1CC[C@H]2C(CC[C@@H]3[C@]2(C)CCC[C@@]3(C)C(=O)[O-])C1.[Na+]` (stereo partly shown) [Sodium tetrahydroabietate] gave an MIC of 5 ppm. In experiment [1] (Table 1, in words), the “Antibacterial power compared with other antibacterial substances” value was “far stronger antibacterial power than other antibacterial substances”. The same compound returned an Inhibitory band diameter in experiment [2] of 17 mm. As for `CC(C)[C@@H]1CC[C@H]2[C@@H](CC[C@@H]3[C@]2(C)CCC[C@@]3(C)C(=O)O)C1` [Tetrahydroabietic acid], the MIC in experiment [1] (GAM agar medium, pH 7.3±0.1) amounted to 3 ppm. The compound also registered an Inhibitory band diameter in experiment [2] of 18 mm. With `O=c1oc2cc(O)ccc2s1` [Thioxolone], the MIC in experiment [1] (setting [3]) is 50 µg/mL (≈ 297 µM).
